Laboratory results from PubChem BioAssay AID328 (DTP/NCI, 2004).
Values joined by “and” are separate entries in the source; they are usually repeats but may differ in a detail not shown here. Identical values can stand only once. Toxic doses and inconclusive results are not listed.

System: BDF1 mice, P388 leukemia ip, median survival T/C
Experiment: NCI In Vivo Anticancer Drug Screen. Data for tumor model P388 Leukemia (intraperitoneal) in B6D2F1 (BDF1) mice
Details: endpoint: median survival time, higher = longer survival
Outline: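 In tumour-bearing mice, survival after compound treatment is set against the vehicle group and given as a quotient.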

[1] = dose: 25.0 mg/kg/injection, schedule: Q01DX009 (ip), vehicle: saline with Tween-80
[2] = dose: 50.0 mg/kg/injection, schedule: Q01DX009 (ip), vehicle: saline with Tween-80
[3] = dose: 100.0 mg/kg/injection, schedule: Q01DX009 (ip), vehicle: saline with Tween-80
[4] = dose: 100.0 mg/kg/injection, schedule: Q04DX003 (ip), vehicle: saline with Tween-80
[5] = dose: 200.0 mg/kg/injection, schedule: Q01DX009 (ip), vehicle: saline with Tween-80
[6] = dose: 200.0 mg/kg/injection, schedule: Q04DX003 (ip), vehicle: saline with Tween-80
[7] = dose: 400.0 mg/kg/injection, schedule: Q04DX003 (ip), vehicle: saline with Tween-80
[8] = dose: 25.0 mg/kg/injection, schedule: Q01DX009 (ip), vehicle: Klucel (hydroxypropylcellulose) (HPC)
[9] = dose: 100.0 mg/kg/injection, schedule: Q01DX009 (ip), vehicle: Klucel (hydroxypropylcellulose) (HPC)
[10] = dose: 200.0 mg/kg/injection, schedule: Q04DX003 (ip), vehicle: Klucel (hydroxypropylcellulose) (HPC)

CC(=O)NC(=O)NC(C)=O
T/C (dose: 100.0 mg/kg/injection, schedule: Q01DX001 (ip), vehicle: saline): 91 % of control
T/C (dose: 200.0 mg/kg/injection, schedule: Q01DX001 (ip), vehicle: saline): 91 % of control
T/C (dose: 400.0 mg/kg/injection, schedule: Q01DX001 (ip), vehicle: saline): 91 % of control

Cc1nc(OCc2ccccc2)c(C(=O)OCc2ccccc2)nc1C
T/C [1]: 100 % of control
T/C [2]: 106 % of control and 121 % of control
T/C [3]: 106 % of control and 108 % of control
T/C [4]: 94 % of control
T/C [5]: 100 % of control and 101 % of control
T/C [6]: 91 % of control
T/C (dose: 400.0 mg/kg/injection, schedule: Q01DX009 (ip), vehicle: saline with Tween-80): 97 % of control and 124 % of control
T/C [7]: 100 % of control
T/C (dose: 500.0 mg/kg/injection, schedule: Q01DX009 (ip), vehicle: saline with Tween-80): 106 % of control

CCNCc1cc(Nc2cc(C)nc(/N=C(\N)Nc3ccc(Cl)c(Cl)c3)n2)ccc1OC
T/C (dose: 6.25 mg/kg/injection, schedule: Q01DX009 (ip), vehicle: Klucel (hydroxypropylcellulose) (HPC)): 90 % of control
T/C (dose: 8.75 mg/kg/injection, schedule: Q04DX003 (ip), vehicle: Klucel (hydroxypropylcellulose) (HPC)): 112 % of control
T/C (dose: 12.5 mg/kg/injection, schedule: Q01DX009 (ip), vehicle: Klucel (hydroxypropylcellulose) (HPC)): 100 % of control
T/C (dose: 17.5 mg/kg/injection, schedule: Q04DX003 (ip), vehicle: Klucel (hydroxypropylcellulose) (HPC)): 108 % of control
T/C [8]: 90 % of control
T/C (dose: 33.0 mg/kg/injection, schedule: Q04DX003 (ip), vehicle: Klucel (hydroxypropylcellulose) (HPC)): 116 % of control
T/C (dose: 35.0 mg/kg/injection, schedule: Q04DX003 (ip), vehicle: Klucel (hydroxypropylcellulose) (HPC)): 108 % of control
T/C (dose: 50.0 mg/kg/injection, schedule: Q04DX003 (ip), vehicle: Klucel (hydroxypropylcellulose) (HPC)): 108 % of control
T/C (dose: 75.0 mg/kg/injection, schedule: Q04DX003 (ip), vehicle: Klucel (hydroxypropylcellulose) (HPC)): 108 % of control
T/C (dose: 80.0 mg/kg/injection, schedule: Q04DX003 (ip), vehicle: Klucel (hydroxypropylcellulose) (HPC)): 109 % of control

CCSc1ncnc2c1ncn2C1OC(CO)C(O)C1O (stereo unspecified)
T/C [2]: 95 % of control
T/C [3]: 117 % of control
T/C [5]: 91 % of control

CCCc1nc2c(OC)ccc(OC)c2nc1C
T/C [8]: 100 % of control
T/C (dose: 50.0 mg/kg/injection, schedule: Q01DX009 (ip), vehicle: Klucel (hydroxypropylcellulose) (HPC)): 100 % of control
T/C [9]: 100 % of control
T/C (dose: 150.0 mg/kg/injection, schedule: Q01DX009 (ip), vehicle: Klucel (hydroxypropylcellulose) (HPC)): 90 % of control

CS(=O)(=O)OCCCCCCCCCOS(C)(=O)=O
T/C (dose: 33.0 mg/kg/injection, schedule: Q04DX003 (ip), vehicle: saline with Tween-80): 104 % of control
T/C (dose: 50.0 mg/kg/injection, schedule: Q04DX003 (ip), vehicle: saline with Tween-80): 113 % of control

COc1cc(NC(=O)CN(CCCl)CCCl)cc(OC)c1OC
T/C (dose: 7.7 mg/kg/injection, schedule: Q04DX003 (ip), vehicle: Klucel (hydroxypropylcellulose) (HPC)): 107 % of control
T/C (dose: 30.0 mg/kg/injection, schedule: Q04DX003 (ip), vehicle: Klucel (hydroxypropylcellulose) (HPC)): 122 % of control
T/C (dose: 60.0 mg/kg/injection, schedule: Q04DX003 (ip), vehicle: Klucel (hydroxypropylcellulose) (HPC)): 104 % of control and 114 % of control
T/C (dose: 90.0 mg/kg/injection, schedule: Q04DX003 (ip), vehicle: Klucel (hydroxypropylcellulose) (HPC)): 177 % of control
T/C [10]: 209 % of control
T/C (dose: 300.0 mg/kg/injection, schedule: Q04DX003 (ip), vehicle: Klucel (hydroxypropylcellulose) (HPC)): 122 % of control

NC(=O)/C=C/c1c[nH]c2nccnc12
T/C (dose: 3.12 mg/kg/injection, schedule: Q01DX009 (ip), vehicle: water): 113 % of control
T/C (dose: 3.12 mg/kg/injection, schedule: Q04DX003 (ip), vehicle: water): 106 % of control
T/C (dose: 6.25 mg/kg/injection, schedule: Q01DX009 (ip), vehicle: water): 108 % of control
T/C (dose: 6.25 mg/kg/injection, schedule: Q04DX003 (ip), vehicle: water): 105 % of control and 112 % of control
T/C (dose: 12.5 mg/kg/injection, schedule: Q01DX009 (ip), vehicle: water): 121 % of control
T/C (dose: 12.5 mg/kg/injection, schedule: Q04DX003 (ip), vehicle: water): 104 % of control and 106 % of control
T/C (dose: 25.0 mg/kg/injection, schedule: Q04DX003 (ip), vehicle: water): 114 % of control

CC(=O)OC1C=CCC23C(=O)C=CC(=O)C12C(=O)c1ccccc1C3=O (stereo unspecified)
T/C (dose: 1.56 mg/kg/injection, schedule: Q01DX009 (ip), vehicle: saline): 102 % of control
T/C (dose: 3.12 mg/kg/injection, schedule: Q01DX009 (ip), vehicle: saline): 93 % of control
T/C (dose: 6.25 mg/kg/injection, schedule: Q01DX009 (ip), vehicle: saline): 95 % of control
T/C (dose: 12.5 mg/kg/injection, schedule: Q01DX009 (ip), vehicle: saline): 95 % of control
T/C (dose: 50.0 mg/kg/injection, schedule: Q01DX009 (ip), vehicle: saline): 107 % of control

S=c1sc(-c2ccc(Cl)cc2)c[se]1
T/C (dose: 0.78 mg/kg/injection, schedule: Q01DX009 (ip), vehicle: saline with Tween-80): 97 % of control
T/C (dose: 1.56 mg/kg/injection, schedule: Q01DX009 (ip), vehicle: saline with Tween-80): 109 % of control
T/C (dose: 3.13 mg/kg/injection, schedule: Q01DX009 (ip), vehicle: saline with Tween-80): 93 % of control and 100 % of control
T/C (dose: 12.5 mg/kg/injection, schedule: Q01DX009 (ip), vehicle: saline with Tween-80): 93 % of control

CCC1(C)N=C(C)C(C)S1 (stereo unspecified)
T/C [4]: 100 % of control
T/C [6]: 100 % of control
T/C [7]: 109 % of control

C=C/C(C)=C/[C@H](C)C(=O)C[C@H](O)CC1CC(=O)NC(=O)C1
T/C (dose: 7.3 mg/kg/injection, schedule: Q01DX009 (ip), vehicle: saline with Tween-80): 111 % of control
T/C (dose: 11.0 mg/kg/injection, schedule: Q01DX009 (ip), vehicle: saline with Tween-80): 121 % of control
T/C (dose: 16.5 mg/kg/injection, schedule: Q01DX009 (ip), vehicle: saline with Tween-80): 171 % of control
T/C [1]: 123 % of control and 124 % of control
T/C (dose: 37.5 mg/kg/injection, schedule: Q01DX009 (ip), vehicle: saline with Tween-80): 152 % of control
T/C (dose: 75.0 mg/kg/injection, schedule: Q01DX009 (ip), vehicle: saline with Tween-80): 180 % of control

N#CCSc1ncnc2nc[nH]c12
T/C (dose: 30.0 mg/kg/injection, schedule: Q01DX010 (ip), vehicle: saline): 95 % of control and 100 % of control
T/C (dose: 60.0 mg/kg/injection, schedule: Q01DX010 (ip), vehicle: saline): 100 % of control
T/C (dose: 120.0 mg/kg/injection, schedule: Q01DX010 (ip), vehicle: saline): 100 % of control

CCC(CCC(C)C1CCC2C3CC=C4CC(OC5OC(CO)C(O)C(O)C5O)CCC4(C)C3CCC12C)C(C)C (stereo unspecified)
T/C (dose: 100.0 mg/kg/injection, schedule: Q04DX003 (ip), vehicle: Klucel (hydroxypropylcellulose) (HPC)): 95 % of control
T/C [10]: 95 % of control

C=C(C)[C@@H]1CC[C@]2(CO)CC[C@]3(C)[C@H](CC[C@@H]4[C@@]5(C)CC[C@H](O)C(C)(C)[C@@H]5CC[C@]43C)[C@@H]12
T/C (dose: 10.0 mg/kg/injection, schedule: Q01DX009 (ip), vehicle: saline with Tween-80): 94 % of control
T/C (dose: 20.0 mg/kg/injection, schedule: Q01DX009 (ip), vehicle: saline with Tween-80): 99 % of control
T/C (dose: 40.0 mg/kg/injection, schedule: Q01DX009 (ip), vehicle: saline with Tween-80): 100 % of control
T/C (dose: 75.0 mg/kg/injection, schedule: Q01DX009 (ip), vehicle: other): 97 % of control
T/C (dose: 80.0 mg/kg/injection, schedule: Q01DX009 (ip), vehicle: saline with Tween-80): 95 % of control
T/C [9]: 101 % of control
T/C (dose: 150.0 mg/kg/injection, schedule: Q01DX009 (ip), vehicle: other): 106 % of control
T/C (dose: 200.0 mg/kg/injection, schedule: Q01DX009 (ip), vehicle: Klucel (hydroxypropylcellulose) (HPC)): 98 % of control
T/C (dose: 400.0 mg/kg/injection, schedule: Q01DX009 (ip), vehicle: Klucel (hydroxypropylcellulose) (HPC)): 111 % of control
